Data reported in article PMC3781056, “New Pyrazolopyrimidine Inhibitors of Protein Kinase D as Potent Anticancer Agents for Prostate Cancer Cells” (PLoS ONE, 2013).
Like-named read-outs stand apart in the source and are kept apart here.

Legend:
PKD1 = target: T1, PKD1 (Homo sapiens, UniProt Q15139); test: Radiometric PKD kinase assay, 10-point IC50; format: biochemical
T1 construct: GST; purchased Enzo Life sciences (Farmingdale, NY)
T1 sequence (Q15139 1-912): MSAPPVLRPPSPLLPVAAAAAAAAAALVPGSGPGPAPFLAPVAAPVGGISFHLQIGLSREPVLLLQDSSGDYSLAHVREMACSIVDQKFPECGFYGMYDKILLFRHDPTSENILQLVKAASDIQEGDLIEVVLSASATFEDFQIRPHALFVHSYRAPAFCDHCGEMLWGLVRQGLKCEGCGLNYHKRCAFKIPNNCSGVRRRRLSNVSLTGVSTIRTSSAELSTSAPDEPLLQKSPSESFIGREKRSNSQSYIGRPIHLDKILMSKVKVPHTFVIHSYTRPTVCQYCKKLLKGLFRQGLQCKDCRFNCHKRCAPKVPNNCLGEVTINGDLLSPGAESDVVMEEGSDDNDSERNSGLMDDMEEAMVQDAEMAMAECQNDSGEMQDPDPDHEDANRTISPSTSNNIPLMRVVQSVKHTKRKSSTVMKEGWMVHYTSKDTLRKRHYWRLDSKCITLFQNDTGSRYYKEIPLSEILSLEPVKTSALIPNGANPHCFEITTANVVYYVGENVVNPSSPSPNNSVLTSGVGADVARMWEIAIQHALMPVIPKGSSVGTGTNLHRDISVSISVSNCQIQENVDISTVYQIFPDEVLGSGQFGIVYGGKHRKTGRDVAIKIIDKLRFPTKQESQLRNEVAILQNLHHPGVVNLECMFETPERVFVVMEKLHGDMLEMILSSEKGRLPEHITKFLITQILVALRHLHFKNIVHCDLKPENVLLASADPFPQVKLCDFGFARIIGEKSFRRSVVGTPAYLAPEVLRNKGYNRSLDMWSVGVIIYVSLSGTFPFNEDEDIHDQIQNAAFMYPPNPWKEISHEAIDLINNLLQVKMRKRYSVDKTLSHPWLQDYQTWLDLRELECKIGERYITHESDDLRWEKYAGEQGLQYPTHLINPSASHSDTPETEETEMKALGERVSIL
Method: Phosphorylation of HDAC5 was detected in a kinase reaction having 1 µCi [γ-^32P] […] The reaction was incubated at 30°C for 10 minutes and 25 µL of the reaction was spotted on Whatman P81 filter paper. The filter paper was washed 3 times in 0.5% phosphoric acid, air dried and counted using Beckman LS6500 multipurpose scintillation counter. Percent PKD1 inhibition was graphed using GraphPad Prism software 5.0.

[1] = test system: PC3 prostate cancer cells; test: Cell proliferation assay (cell counts); format: cell-based; conditions: 30 µM, starting at day 2 to day 6
Method: PKD has emerged as a promising therapeutic target for cancer. […] Cell proliferation was determined by treating the cells at 30 µM concentration of agent, and then cell number was counted for six consecutive days in the presence and absence of inhibitor.
PC3 cells were plated in triplicates in 24-well plates. Cells were allowed to attach overnight. […] Cells were counted daily for a total of 5 days. Fresh media and inhibitor were added every 2 days. The means of triplicate determinations were plotted over time. The experiment was repeated twice and results from one representative experiment are shown. […] PC3 cells were seeded into 96-well plates (3000 cells/well) and were then incubated in media containing 0.3–100 µM inhibitors for 72 h. MTT solution was added to each well and incubated for 4 h. Optical density was read at 570 nm to determine cell viability. The IC50 was determined as the mean of two independent experiments for each compound. C. […] Cell cycle distribution was determined by flow cytometry after propidium iodide labeling of fixed cells. Statistical significance was determined by unpaired t-test and is indicated. **, p<0.01; ***, p<0.001. […]
Proliferation of PC3 cells was measured by counting the number of viable cells upon trypan blue staining as previously described. […] The labeled cells were analyzed using a FACSCalibur flow cytometer (BD Biosciences).

DU145 cells = test: Matrigel invasion assay; format: cell-based; conditions: Homo sapiens, DU-145, 20 h, read-out: inhibition of cell invasion compared with control
Method: A.1-NA- PP1 blocked prostate cancer cell migration. PC3 cells were grown to confluence in 6-well plates. Monolayer was wounded and imaged immediately (0 h). […] Percentage wound healing was calculated as the percent of healed wound area as compared to the original wound. […] After 20 h, noninvasive cells were removed and invasive cells were fixed in 100% methanol, stained in 0.4% hematoxylin solution, and photographed. The number of cells that invaded the Matrigel matrix was determined by cell counts in 6 fields relative to the number of cells that migrated through the control insert. Percentage invasion was calculated as the percent of the cells invaded through Matrigel inserts vs. the total cells migrated through the control inserts. C. […] DU145 cells were infected with null, PKD1, and PKD3 adenoviruses (Adv-null, Adv-PKD1, and Adv-PKD3) at 100 MOI. […]
DU145 cells (4.0×10^4 cells/ml) in RPMI containing 0.1% fetal bovine serum (FBS) were seeded into the top chamber of BioCoat control inserts (pore size 8 µm) or BioCoat Matrigel invasion inserts with Matrigel-coated filters (BD Pharmingen). […] After staining, cells were counted under a microscope (200× magnification). The percentage invasion was determined by cell counts in […] of the number of cells that invaded the Matrigel matrix relative to the number of cells that migrated through the control insert.

[2] = test system: DU145 cells infected with Adv-PKD1 or Adv-PKD3; format: cell-based
Method: After 20 h, noninvasive cells were removed and invasive cells were fixed in 100% methanol, stained in 0.4% hematoxylin solution, and photographed. The number of cells that invaded the Matrigel matrix was determined by cell counts in 6 fields relative to the number of cells that migrated through the control insert. Percentage invasion was calculated as the percent of the cells invaded through Matrigel inserts vs. the total cells migrated through the control inserts. […] DU145 cells were infected with null, PKD1, and PKD3 adenoviruses (Adv-null, Adv-PKD1, and Adv-PKD3) at 100 MOI. After 24 h, cells were replated in control and Matrigel inserts, and a Matrigel invasion assay was conducted as described above. […] All the above experiments were repeated at least three times and data from a representative experiment are shown.

[3] = test system: DU145 cells infected with Adv-PKD1 or Adv-PKD3; format: cell-based; remark: listed apart in the source
Method: DU145 cells were infected with null, PKD1, and PKD3 adenoviruses (Adv-null, Adv-PKD1, and Adv-PKD3) at 100 MOI. […] The number of cells that migrated was determined by cell counts in 6 fields. Percentage migration was calculated as the percent of the Adv-null treated with vehicle DMSO (set to 100%). The experiment was repeated three times and data from a representative experiment are shown.

| Structure (SMILES) | IC50 (PKD1; mean ± SEM, read-out: IC50 PKD1) | IC50 (PKD1; value in the figure, read-out: PKD1 IC50) | effect on PC3 cell proliferation (cell counts) [1] | inhibition at 30 µM (DU145 cells) | effect of PKD1 or PKD3 overexpression on inhibition of cell invasion [2] | effect of PKD1 or PKD3 overexpression on inhibition of cell migration [3] |
| --- | --- | --- | --- | --- | --- | --- |
| O=C(c1ccc(Nc2nccc(-c3cc4ccccc4s3)n2)cc1)N1CCC(N2CCCC2)CC1 [IKK-16, reference compound] | 154 nM | 162 nM |  |  |  |  |
| CC(C)(C)n1nc(-c2cccc3ccccc23)c2c(N)ncnc21 [Compound 1-NA-PP1, 1-(t-Butyl)-3-(naphthalen-1-yl)-1H-pyrazolo[3,4-d]pyrimidin-4-amine] |  |  | drastic growth arrest | > 60% | completely reversed | did not affect |
